From the supplement of paper PMC10307832

Key:
Assay in all cases: relative viability (nuclei count vs DMSO), 5 days (fraction); higher = more cells survive
Darinaparsin + Lapatinib = compound: C[As](C)SC[C@H](NC(=O)CC[C@H](N)C(=O)O)C(=O)NCC(=O)O [Darinaparsin] + CS(=O)(=O)CCNCc1ccc(-c2ccc3ncnc(Nc4ccc(OCc5cccc(F)c5)c(Cl)c4)c3c2)o1 [Lapatinib] (partner 2 µM)
In short: (§1)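 Relative viability was taken as the ratio of nuclei in treated wells to nuclei in vehicle wells. Lung cancer cell lines in 1536-well plates received compounds by pin tool one day after seeding, either one drug alone or a fixed anchor-drug dose plus five library-drug doses (not always all listed) in √10 steps. Nuclei were counted on 4× images after 5 days of treatment, and values are medians of duplicate plates.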

[1] = compound: C[As](C)SC[C@H](NC(=O)CC[C@H](N)C(=O)O)C(=O)NCC(=O)O [Darinaparsin] + CCNC(=O)c1noc(-c2cc(C(C)C)c(O)cc2O)c1-c1ccc(CN2CCOCC2)cc1 [Luminespib] (partner 0.01 µM)
In short: as §1

AZ628 + Pictilisib = compound: CC1=C(C=C(C=C1)NC(=O)C2=CC(=CC=C2)C(C)(C)C#N)NC3=CC4=C(C=C3)N=CN(C4=O)C [AZ628] + CS(=O)(=O)N1CCN(Cc2cc3nc(-c4cccc5[nH]ncc45)nc(N4CCOCC4)c3s2)CC1 [Pictilisib] (partner 1 µM)
In short: as §1

QS11 + Dasatinib = compound: C1CC2=C(C1)C=C(C=C2)OC3=NC(=C4C(=N3)N(C=N4)CC5=CC=C(C=C5)C6=CC=CC=C6)N[C@@H](CC7=CC=CC=C7)CO [QS11] + Cc1nc(Nc2ncc(C(=O)Nc3c(C)cccc3Cl)s2)cc(N2CCN(CCO)CC2)n1 [Dasatinib] (partner 0.075 µM)
In short: as §1

| Cell Line | relative viability (Darinaparsin + Lapatinib; first compound 0.08 µM) | relative viability (Darinaparsin + Lapatinib; first compound 0.8 µM) | relative viability (Darinaparsin + Lapatinib; first compound 2.53 µM) | relative viability (Darinaparsin + Lapatinib; first compound 8 µM) | relative viability ([1]; first compound 0.08 µM) | relative viability ([1]; first compound 0.8 µM) | relative viability ([1]; first compound 2.53 µM) | relative viability ([1]; first compound 8 µM) | relative viability (AZ628 + Pictilisib; first compound 0.08 µM) | relative viability (AZ628 + Pictilisib; first compound 0.253 µM) | relative viability (AZ628 + Pictilisib; first compound 0.8 µM) | relative viability (AZ628 + Pictilisib; first compound 2.53 µM) | relative viability (AZ628 + Pictilisib; first compound 8 µM) | relative viability (QS11 + Dasatinib; first compound 0.08 µM) | relative viability (QS11 + Dasatinib; first compound 0.253 µM) | relative viability (QS11 + Dasatinib; first compound 2.53 µM) | relative viability (QS11 + Dasatinib; first compound 8 µM) | relative viability (QS11 + Dasatinib; first compound 0.8 µM) |
| --- | --- | --- | --- | --- | --- | --- | --- | --- | --- | --- | --- | --- | --- | --- | --- | --- | --- | --- |
| NCI-H1915 | 0.996 | 0.888 | 0.932 | 1.18 | 1.04 | 0.795 | 0.625 | 0.827 | 0.822 | 0.67 | 0.693 | 0.493 | 0.313 | 0.348 | 0.321 | 0.35 | 0.239 | – |
| NCI-H1944 | 0.834 | 0.796 | 0.664 | 0.947 | 0.84 | 0.705 | 0.686 | 0.676 | 0.359 | 0.321 | 0.322 | 0.29 | 0.321 | 0.197 | 0.214 | 0.226 | 0.272 | – |
| NCI-H1975 | 0.998 | 0.895 | 0.66 | 1.25 | 0.233 | 0.221 | 0.23 | 0.187 | 0.309 | 0.285 | 0.29 | 0.277 | 0.206 | 0.357 | 0.31 | 0.512 | 0.455 | 0.423 |
| NCI-H1993 | 0.854 | 0.736 | 0.722 | 0.534 | 0.957 | 0.698 | 0.724 | 0.723 | 0.784 | 0.829 | 0.705 | 0.769 | 0.726 | 0.558 | 0.508 | 0.684 | 0.528 | 0.618 |
| NCI-H2009 | 0.992 | 0.93 | 0.888 | 0.915 | 1.18 | 1.01 | 1.01 | 1.07 | 0.512 | 0.311 | 0.291 | 0.277 | 0.226 | 0.277 | 0.295 | 0.209 | 0.229 | 0.261 |
| NCI-H2023 | 1 | 0.85 | 0.63 | 1.2 | 0.927 | 0.714 | 0.827 | 0.882 | 0.218 | 0.23 | 0.236 | 0.196 | 0.202 | 0.634 | 0.475 | 0.572 | 0.618 | 0.555 |
| NCI-H2085 | 0.809 | 0.697 | 0.776 | 0.916 | 0.45 | 0.383 | 0.545 | 0.398 | 0.506 | 0.413 | 0.408 | 0.386 | 0.378 | 0.222 | 0.263 | 0.292 | 0.255 | 0.277 |
| NCI-H2087 | 1.29 | 1.02 | 0.951 | 0.997 | 0.159 | 0.162 | 0.204 | 0.184 | 0.617 | 0.35 | 0.325 | 0.341 | 0.291 | 0.745 | 0.963 | 0.963 | 1.2 | – |
| NCI-H2126 | 0.767 | 0.712 | 0.622 | 0.861 | 0.984 | 1.02 | 0.722 | 0.931 | 0.533 | 0.549 | 0.537 | 0.513 | 0.457 | 0.604 | 0.505 | 0.61 | 0.566 | 0.616 |
| NCI-H2170 | 0.283 | 0.257 | 0.286 | 0.285 | 0.82 | 0.381 | 0.727 | 1.1 | 0.386 | 0.305 | 0.354 | 0.337 | 0.275 | 0.621 | 0.482 | 0.794 | 0.968 | 0.582 |
| NCI-H2228 | 1.46 | 0.869 | 0.685 | 1.22 | 0.162 | 0.206 | 0.135 | 0.102 | 0.397 | 0.32 | 0.368 | 0.329 | 0.264 | 0.415 | 0.521 | 0.725 | 0.677 | 0.55 |
| NCI-H2347 | 1.23 | 0.883 | 0.919 | 1.1 | 1.01 | – | 0.414 | 0.388 | 0.321 | 0.437 | 0.312 | 0.32 | 0.287 | 0.279 | 0.297 | 0.274 | 0.308 | 0.308 |
| NCI-H2405 | 1.04 | 1.01 | 1.04 | 1.1 | 0.822 | 0.611 | 0.61 | 0.689 | 0.222 | 0.249 | 0.256 | 0.255 | 0.257 | 0.196 | 0.2 | 0.276 | 0.325 | 0.206 |
| NCI-H3122 | 1.16 | 0.986 | 1.03 | 1.14 | 0.0869 | 0.0882 | 0.107 | 0.112 | 0.286 | 0.218 | 0.214 | 0.214 | 0.234 | 0.876 | 0.82 | 0.969 | 0.538 | – |
| PC-3 [JPC-3] | 0.458 | 0.364 | 0.411 | 0.492 | 0.807 | 0.721 | 0.698 | 0.87 | 0.767 | 0.835 | 0.861 | 0.814 | 0.525 | 0.992 | 1.05 | 1.13 | 1.08 | 0.954 |
| PC-14 | 0.333 | 0.294 | 0.32 | 0.372 | 0.19 | 0.185 | 0.157 | 0.0932 | 0.617 | 0.627 | 0.738 | 0.808 | 0.237 | 0.223 | 0.201 | 0.26 | 0.15 | 0.289 |
| RERF-LC-KJ | 1.11 | 0.849 | 0.762 | 1.03 | 1.97 | 1.21 | 1.11 | 1.15 | 0.573 | 0.633 | 0.612 | 0.513 | 0.487 | 0.921 | 0.836 | 0.61 | 0.534 | 0.764 |
| SK-LU-1 | 1.08 | 0.802 | 0.574 | 0.932 | 0.203 | 0.182 | 0.214 | 0.169 | 0.429 | 0.375 | 0.534 | 0.467 | 0.373 | 0.175 | 0.158 | 0.167 | 0.169 | 0.172 |
| SK-MES-1 | 0.539 | 0.444 | 0.439 | 0.519 | 1.19 | 0.691 | 0.88 | 0.864 | 0.337 | 0.372 | 0.28 | 0.327 | 0.329 | 0.374 | 0.307 | 0.326 | 0.297 | 0.425 |
| SW 1573 | 1.1 | 1.1 | 1.09 | 1.22 | 0.23 | 0.364 | 0.302 | 0.249 | 0.44 | 0.34 | 0.367 | 0.335 | 0.27 | 0.537 | 0.635 | 0.393 | 0.329 | 0.545 |
| UMC-11 | 1.22 | 0.977 | 0.928 | 1.05 | 1.16 | 0.994 | 1.08 | 1.22 | 0.976 | 0.805 | 0.845 | 0.752 | 0.76 | 0.473 | 0.5 | 0.583 | 0.681 | 0.494 |
